Results as given in patent US9617212B2, “Isoindolin-1-ones as macrophage migration inhibitory factor (MIF) inhibitors” (Controlled Chemicals, Inc., priority 2013, dated 2017).

Target: T1, Human MIF (MIF tautomerase) (Homo sapiens, UniProt P14174)
T1 construct: purchased ProSpec
T1 sequence (P14174 2-115 limits assumed): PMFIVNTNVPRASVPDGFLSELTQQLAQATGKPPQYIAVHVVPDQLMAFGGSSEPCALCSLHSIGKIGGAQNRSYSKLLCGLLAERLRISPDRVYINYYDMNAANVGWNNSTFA
Assay: MIF Tautomerase Inhibitory Assay with L-Dopachrome Methyl Ester
Assay type: biochemical
Details: IC50, relative potency class, MIF tautomerase inhibition; L-dopachrome methyl ester substrate, pH 7.34, no pre-incubation
Description: MIF Tautomerase Inhibitory Assay with L-Dopachrome Methyl Ester
Assay Method (pH 7.34, 0.017-0.033% DMSO, 0.034% EtOH): A fresh stock solution of L-dopachrome methyl ester in MeOH was prepared at 55-65 mM through oxidation of L-3,4-dihydroxyphenylalanine methyl ester hydrochloride with sodium periodate according to the procedure described in WO9729635A1. MeOH was removed from 0.5 mL of the L-dopachrome methyl ester/MeOH solution (55-65 mM) under a stream of argon and the residue taken up in appropriate amount of water to prepare a substrate solution (7-10 mM). Active Human MIF (from ProSpec) ([…]) was dissolved in 675 μL 0.1% bovine serum albumin (BSA) in water, and the resultant MIF solution (1 volume) mixed with 55 volumes of Na2HPO4 buffer (50 mM, pH 7.34) to form a 265 ng/mL MIF working solution. MIF working solution (280 μL) or a no-MIF working solution (prepared by mixing 0.1% BSA (1 volume) with the aforementioned Na2HPO4 buffer (55 volumes)) was transferred to wells in a column of 8 wells on a 96-well plate in a Plate Reader (SPECTRAmax Plus 384, Molecular Devices), and 5 μL of H2O/DMSO (99/1) containing no inhibitor or an inhibitor (whose concentration was verified by HPLC). Without pre-mixing or pre-incubation, 10 μL freshly prepared L-dopachrome methyl ester/H2O solution (7-10 mM) was added to each well with a multi-pipet. The assay samples were mixed immediately by sucking up and expelling the contents of the wells three times with a multi-pipet. The absorbance (A1) at 475 nm was then recorded for each sample every 2 s for 3 min. After 5-6 min, the samples were monitored again for 3 min with a reading every two seconds at 475 nm (A2). It can be shown that when [substrate]<<Km, plots of Ln(A1−A2) versus time are linear with slopes m (Eq 1). IC50 values were estimated from Eq 2-5, the inhibitor concentration [I] in the assay mixture and values of m in the presence (mi), absence (mo) of the inhibitor, the value of m observed for the non-MIF blank (mn), the MIF concentration (e), and the specificity constant for the MIF catalyzed reaction (kcat/Km). Ln(A1−A2)=−mt (Eq 1) F=(mi−mn)/(mo−mn) (Eq 2) Wherein mo−mn=ekcat/Km (Eq 3) and mi−mn=(ekcat/Km)[…] (Eq 4) IC50=[I]F/(1−F) (Eq 5)
The compounds listed in Table 1, provided herein, were prepared via procedures identical or similar to those described in the Examples 1-85. The listed compounds were >95% pure by HPLC. Each listed compound yielded a mass spectrum consistent with its structure. Concentrations of MIF tautomerase inhibitors used in the assay were verified by HPLC and the extinction coefficients of the inhibitors. The designated relative potency of MIF tautomerase inhibitors is based on the IC50 as determined by the method described in Biochemical Assay as follows: A, IC50<1 μM; B, 1 μM≦IC50<5 μM; C, 5 μM≦IC50<10 μM; D, 10 μM≦IC50<50 μM; E, 50 μM≦IC50<200 μM.

Structure (SMILES)	IC50
CC(OC(=O)Cc1ccccc1)[C@H]1CC[C@H](CN2Cc3cc(F)c(O)cc3C2=O)CC1 (stereo partly drawn)	< 1000 nM

Same assay, conditions: relative potency class, MIF tautomerase inhibition; L-dopachrome methyl ester substrate, pH 7.34, no pre-incubation; read-out: IC50

Structure (SMILES)	IC50
CC(Oc1cccc(OCCN)c1)[C@H]1CC[C@H](CN2Cc3ccc(O)c(F)c3C2=O)CC1 (stereo partly drawn)	< 1000 nM
CC(=O)N(C)CCOc1cccc(OC[C@H]2CC[C@H](CN3Cc4ccc(O)c(F)c4C3=O)CC2)c1	< 1000 nM
CC(=O)N(C)CCOc1cccc(OC(C)[C@H]2CC[C@H](CN3Cc4ccc(O)c(F)c4C3=O)CC2)c1 (stereo partly drawn)	< 1000 nM
CC(Oc1cccc(OC[C@H](N)C(=O)O)c1)[C@H]1CC[C@H](CN2Cc3ccc(O)c(F)c3C2=O)CC1 (stereo partly drawn)	< 1000 nM
N[C@@H](COc1cccc(OC[C@H]2CC[C@H](CN3Cc4ccc(O)c(F)c4C3=O)CC2)c1)C(=O)O	< 1000 nM
CC(=O)N[C@@H](COc1cccc(OC[C@H]2CC[C@H](CN3Cc4ccc(O)c(F)c4C3=O)CC2)c1)C(=O)O	< 1000 nM
CC(=O)N[C@@H](COc1cccc(OC(C)[C@H]2CC[C@H](CN3Cc4ccc(O)c(F)c4C3=O)CC2)c1)C(=O)O (stereo partly drawn)	< 1000 nM
CC(Oc1cccc(OCCN2CCOCC2)c1)[C@H]1CC[C@H](CN2Cc3ccc(O)c(F)c3C2=O)CC1 (stereo partly drawn)	< 1000 nM
O=C1c2cc(O)ccc2CN1C[C@H]1CC[C@H](C(O)C2CCCCC2)CC1 (stereo partly drawn)	< 1000 nM
O=C1c2cc(O)ccc2CN1C[C@H]1CC[C@H](C(O)CC2CCCCC2)CC1 (stereo partly drawn)	< 1000 nM
CC(C)(O)[C@H]1CC[C@H](CN2Cc3ccc(O)c(F)c3C2=O)CC1	< 1000 nM
CC(C)(O)[C@H]1CC[C@H](CN2Cc3ccc(O)cc3C2=O)CC1	< 1000 nM
CC(O)[C@H]1CC[C@H](CN2Cc3cc(F)c(O)c(F)c3C2=O)CC1 (stereo partly drawn)	< 1000 nM
CCC(O)[C@H]1CC[C@H](CN2Cc3ccc(O)c(F)c3C2=O)CC1 (stereo partly drawn)	< 1000 nM
C[C@@H](O)[C@H]1CC[C@H](CN2Cc3ccc(O)c(F)c3C2=O)CC1	< 1000 nM
C[C@H](O)[C@H]1CC[C@H](CN2Cc3ccc(O)c(F)c3C2=O)CC1	< 1000 nM
CC(O)[C@H]1CC[C@H](CN2Cc3cc(F)c(O)cc3C2=O)CC1 (stereo partly drawn)	< 1000 nM
CC(O)[C@H]1CC[C@H](CN2Cc3ccc(O)c(F)c3C2=O)CC1 (stereo partly drawn)	< 1000 nM
O=C1c2c(ccc(O)c2F)CN1C[C@H]1CC[C@H](CO)CC1	< 1000 nM
CC(O)[C@H]1CC[C@H](CN2Cc3ccc(O)cc3C2=O)CC1 (stereo partly drawn)	< 1000 nM
CC(=O)[C@H]1CC[C@H](CN2Cc3ccc(O)c(F)c3C2=O)CC1	< 1000 nM
COC(=O)[C@@H](CO)NC(C)C1CCC(CN2Cc3ccc(O)c(F)c3C2=O)CC1 (stereo partly drawn)	< 1000 nM
CC(N[C@H](CO)C(=O)O)C1CCC(CN2Cc3ccc(O)c(F)c3C2=O)CC1 (stereo partly drawn)	< 1000 nM
COC(=O)[C@H](NC(C)C1CCC(CN2Cc3ccc(O)c(F)c3C2=O)CC1)C(C)C (stereo partly drawn)	< 1000 nM
CC(N[C@@H](C(=O)O)C(C)C)C1CCC(CN2Cc3ccc(O)c(F)c3C2=O)CC1 (stereo partly drawn)	< 1000 nM
COC(=O)[C@H](C)NC(C)C1CCC(CN2Cc3ccc(O)c(F)c3C2=O)CC1 (stereo partly drawn)	< 1000 nM
CC(N[C@H](C)C(=O)O)C1CCC(CN2Cc3ccc(O)c(F)c3C2=O)CC1 (stereo partly drawn)	< 1000 nM

Structure (SMILES)	IC50
CC(N[C@@H](C)C(=O)O)C1CCC(CN2Cc3ccc(O)c(F)c3C2=O)CC1 (stereo partly drawn)	< 1000 nM
COC(=O)CCNC(C)C1CCC(CN2Cc3ccc(O)c(F)c3C2=O)CC1 (stereo not drawn)	< 1000 nM
CC(NCCC(=O)O)C1CCC(CN2Cc3ccc(O)c(F)c3C2=O)CC1 (stereo not drawn)	< 1000 nM
CNC(=O)CCNC(C)C1CCC(CN2Cc3ccc(O)c(F)c3C2=O)CC1 (stereo not drawn)	< 1000 nM
CC(NCC(=O)O)[C@H]1CC[C@H](CN2Cc3ccc(O)c(F)c3C2=O)CC1 (stereo partly drawn)	< 1000 nM
CC(NCC(N)=O)[C@H]1CC[C@H](CN2Cc3ccc(O)c(F)c3C2=O)CC1 (stereo partly drawn)	< 1000 nM
CC(NC(CO)CO)C1CCC(CN2Cc3ccc(O)c(F)c3C2=O)CC1 (stereo not drawn)	< 1000 nM
CC([C@H]1CC[C@H](CN2Cc3ccc(O)c(F)c3C2=O)CC1)N1CCOCC1 (stereo partly drawn)	< 1000 nM
CC([C@H]1CC[C@H](CN2Cc3ccc(O)cc3C2=O)CC1)N1CCOCC1 (stereo partly drawn)	< 1000 nM
CC(NCCO)C1CCC(CN2Cc3ccc(O)c(F)c3C2=O)CC1 (stereo not drawn)	< 1000 nM
CC(C)NC(C)[C@H]1CC[C@H](CN2Cc3cc(F)c(O)c(F)c3C2=O)CC1 (stereo partly drawn)	< 1000 nM
CC(=O)NC(C)[C@H]1CC[C@H](CN2Cc3ccc(O)c(F)c3C2=O)CC1 (stereo partly drawn)	< 1000 nM
CC(=O)NC[C@H]1CC[C@H](CN2Cc3ccc(O)c(F)c3C2=O)CC1	< 1000 nM
CC(C)(N)[C@H]1CC[C@H](CN2Cc3ccc(O)c(F)c3C2=O)CC1	< 1000 nM
CC(N)[C@H]1CC[C@H](CN2Cc3ccc(O)c(F)c3C2=O)CC1 (stereo partly drawn)	< 1000 nM
O=C1OCc2c(OC[C@H]3CC[C@H](CN4Cc5ccc(O)cc5C4=O)CC3)cccc21	1000 to 5000 nM
O=C1OCc2cc(OC[C@H]3CC[C@H](CN4Cc5ccc(O)cc5C4=O)CC3)ccc21	1000 to 5000 nM
O=C1c2cc(O)ccc2CN1C[C@H]1CC[C@H](COc2cc(O)cc(F)c2)CC1	1000 to 5000 nM
COc1cccc(OC(CCC2CCCCC2)[C@H]2CC[C@H](CN3Cc4ccc(O)cc4C3=O)CC2)c1 (stereo partly drawn)	1000 to 5000 nM
O=C(OC1CCCCC1)c1ccc(CCN2Cc3ccc(O)cc3C2=O)cc1	1000 to 5000 nM
O=C1c2cc(O)ccc2CN1C[C@H]1CC[C@H](C(=O)OC2CCCCC2)CC1	1000 to 5000 nM
O=C1c2cc(O)ccc2CN1C[C@H]1CC[C@H](COC2CCCCC2)CC1	1000 to 5000 nM
CCC(C)OC(=O)[C@H]1CC[C@H](CN2Cc3ccc(O)cc3C2=O)CC1 (stereo partly drawn)	1000 to 5000 nM
CN(C)C(=O)[C@H]1CC[C@H](CN2Cc3ccc(O)cc3C2=O)CC1	1000 to 5000 nM
CNC(=O)[C@H]1CC[C@H](CN2Cc3ccc(O)cc3C2=O)CC1	1000 to 5000 nM
COC(C)[C@H]1CC[C@H](CN2Cc3ccc(O)c(F)c3C2=O)CC1 (stereo partly drawn)	1000 to 5000 nM
O=C1c2cc(O)ccc2CN1CCc1cccc(O)c1	1000 to 5000 nM

Structure (SMILES)	IC50
O=C1c2cc(O)ccc2CN1C[C@H]1CC[C@H](CO)CC1	1000 to 5000 nM
O=C1c2cc(O)ccc2CN1CC1CCC(O)CC1 (stereo not drawn)	1000 to 5000 nM
O=C1c2cc(O)ccc2CN1C[C@H]1CC[C@H](CN2CCOCC2)CC1	1000 to 5000 nM
CC(C)CNC(C)[C@H]1CC[C@H](CN2Cc3ccc(O)cc3C2=O)CC1 (stereo partly drawn)	1000 to 5000 nM
CC(C)NC(C)[C@H]1CC[C@H](CN2Cc3ccc(O)cc3C2=O)CC1 (stereo partly drawn)	1000 to 5000 nM
CCCNC(C)[C@H]1CC[C@H](CN2Cc3ccc(O)cc3C2=O)CC1 (stereo partly drawn)	1000 to 5000 nM
O=C1c2cc(O)ccc2CN1C[C@H]1CC[C@H](C(=O)N2CCOCC2)CC1	1000 to 5000 nM
CC(N)[C@H]1CC[C@H](CN2Cc3cc(Cl)c(O)c(F)c3C2=O)CC1 (stereo partly drawn)	1000 to 5000 nM
CC(N)[C@H]1CC[C@H](CN2Cc3cc(F)c(O)c(F)c3C2=O)CC1 (stereo partly drawn)	1000 to 5000 nM
CC(N)[C@H]1CC[C@H](CN2Cc3ccc(O)cc3C2=O)CC1 (stereo partly drawn)	1000 to 5000 nM
NC[C@H]1CC[C@H](CN2Cc3ccc(O)c(F)c3C2=O)CC1	1000 to 5000 nM
O=C1c2cc(O)ccc2CN1CC1CCCCCC1	1000 to 5000 nM
O=C1c2cc(O)ccc2CN1CC1CCCCC1	1000 to 5000 nM
CC1CCC(N2Cc3ccc(O)cc3C2=O)CC1 (stereo not drawn)	1000 to 5000 nM
COC(=O)CCCCN1Cc2ccc(O)cc2C1=O	1000 to 5000 nM
O=C1c2cc(O)ccc2CN1C[C@H]1CC[C@H](C(=O)OC2CCCC2)CC1	5000 to 10000 nM
O=C1c2cc(O)ccc2CN1C[C@H]1CC[C@H](C(=O)OC2CCCCCC2)CC1	5000 to 10000 nM
O=C1c2cc(O)ccc2CN1CCc1cccc(F)c1	5000 to 10000 nM
O=C1c2cc(O)ccc2CN1CCc1ccccc1	5000 to 10000 nM
O=C1c2cc(O)ccc2CN1CCC1CCCCC1	5000 to 10000 nM
O=C1c2cc(O)ccc2CN1C1CCCCC1	5000 to 10000 nM
O=C1c2cc(O)ccc2CN1C1CCCCCC1	5000 to 10000 nM
COC(=O)CCN1Cc2ccc(O)cc2C1=O	5000 to 10000 nM
COC(=O)CCCN1Cc2ccc(O)cc2C1=O	5000 to 10000 nM
O=C(OC1CCCCC1)c1ccc(CN2Cc3ccc(O)cc3C2=O)cc1	10000 to 50000 nM
O=C1c2cc(O)ccc2CN1[C@@H](CO)C1CCCCC1	10000 to 50000 nM
